From patent US8921270B2, “Method for pre-emergent weed control using triazine-based herbicide” (Amvac Chemical Corporation, priority 2011, dated 2014) come the findings set out here.

In data set [1] the test system is corn. To be noted: in vivo. The method, then: (§1) Several scientific and replicated field research trials were conducted in multiple locations to evaluate weed control and crop tolerance of herbicide compositions containing about 80% by weight of ametryn active ingredient in the form of a water dispersible granule (WDG). The herbicide compositions were applied to the soil surface with or without weeds present at specific intervals i) before planting (preplant), ii) prior to planting and incorporated into the soil (preplant incorporated), and iii) after planting of the corn, but prior to emergence (preemergence).
(§2) Small plot research trials were conducted using a statistical design known as Randomized Complete Block Design (RCBD), which assumes that a population of experimental units can be divided into a number of relatively homogeneous subpopulations or blocks. […] In the analysis, the variation among blocks can be partitioned out of the experimental error (MSE), thereby reducing this quantity and increasing the power of the test. […]
(§3) Efficacy on weeds and crop tolerance evaluations were conducted at specified intervals for each trial. […] Crop tolerance was evaluated at intervals of 7 to 14, 21 to 28, and 42 to 56 days after corn emergence in these trials. […] In an additional trial, efficacy of ametryn at rates of 1.2, 1.6 and 2.4 lb ai/a applied PRE was evaluated on grass and broadleaf weeds at the same intervals as the earlier trials. […]

For data set [2], the system named is Redroot Pigweed. Nature of the data set: Weed control field trial, Wyoming, Ill., medium textured soil (Example 7). Format: in vivo. To be noted: PRE; 8 weeks observation after application. The method, then: as §1
(§4) Small plot research trials were conducted using a statistical design known as Randomized Complete Block Design (RCBD), which assumes that a population of experimental units can be divided into a number of relatively homogeneous subpopulations or blocks. The treatments are then randomly assigned to experimental units such that each treatment occurs equally often (usually once) in each block—i.e., each block contains all treatments. Blocks usually represent levels of naturally occurring differences or sources of variation that are unrelated to the treatments. In the analysis, the variation among blocks can be partitioned out of the experimental error (MSE), thereby reducing this quantity and increasing the power of the test. See, Clewer, A. G., and D. H. Scarisbrick. 2001. Practical statistics and experimental design for plant and crop science. John Wiley & Sons Ltd., New York. crop science. Treatment size was typically 4 rows of corn on 30-inch row spacing×30 feet long replicated 3 to 4 times. Preplant, preplant incorporated (PPI), or preemergence (PRE) treatments were uniformly applied with a hand-held backpack sprayer pressurized with compressed air or carbon dioxide (CO2) as the propellant to simulate commercial scale application. Treatments were applied using flat fan nozzle or spray nozzles at from 30 to 35 pounds per square inch (psi) delivering from 15 to 20 gallons of finished spray solution per acre.
(§5) Efficacy on weeds and crop tolerance evaluations were conducted at specified intervals for each trial. […] Crop tolerance was evaluated at intervals of 7 to 14, 21 to 28, and 42 to 56 days after corn emergence in these trials. […] The efficacy of ametryn at a rate of 0.8, 1.2, 1.6 and 2.4 lbs ai/a applied 7 to 14 days preplant was evaluated on grass and broadleaf weeds at intervals of 7 to 14, 21 to 28, and 42 to 56 days after corn emergence. […] In an additional trial, efficacy of ametryn at rates of 1.2, 1.6 and 2.4 lb ai/a applied PRE was evaluated on grass and broadleaf weeds at the same intervals as the earlier trials. […]

The test system of data set [3] is Lambsquarters. The description is as above. Type of data set: in vivo. Particulars: PRE; 8 weeks observation after application. The method, then: as §1, §4, §5
Data set [4] deals with Velvetleaf. Described as above. Format: in vivo. Particulars: PRE; 8 weeks observation after application. The method, then: as §1, §4, §5
The subject of data set [5] is Giant Foxtail. Described as above. To be noted: PRE; 8 weeks observation after application. Format: in vivo. As for the experimental part:
as §1, §4, §5

The test system of data set [6] is Velvetleaf. Briefly: Weed control field trial, Fishers, Ind., fine textured soil (Example 8). Format: in vivo. Particulars: PRE, rate of 1.6 lb ai/a. As for the experimental part:
as §1, §4, §5

Data set [7] deals with corn. Particulars: in vivo. The method, then: as §1, §2, §3
The source holds these as a separate data set.

Data set [8] concerns Waterhemp. Briefly: Weed control field trial, Geneva, Minn., medium textured soil (Example 10). Format: in vivo. Particulars: PRE; 60 days after application. The method, then: as §1, §4, §5
Data set [9] has as its system Lambsquarters. Described as above. Particulars: PRE; 32 days after application. Type of data set: in vivo. As for the experimental part:
as §1, §4, §5

For data set [10], the system named is Velvetleaf. The description is as above. Type of data set: in vivo. To be noted: PRE; 32 days after application. As for the experimental part: as §1, §4, §5
Data set [11] concerns Giant Foxtail. The data set is described as above. Format: in vivo. To be noted: PRE; 32 days after application. The method, then:
as §1, §4, §5

Read-outs that look alike come from different tables or passages of the source.

Consider `CCNc1nc(NC(C)C)nc(SC)n1` [ametryn, 2-ethylamino-4-isopropylamino-6-methylthio-s-triazine], for which the results for the “Percent corn injury (safety to corn)” value in data set [1] and in data set [7] were “acceptable safety” and “excellent safety”, respectively. The Weed control entry is reported as “good control” in [2]; “good control” in data set [3]; “good control” in data set [4]; “good control” in data set [5]; “moderate weed control” in data set [6]; “moderate control” in [8]. Also, the Weed control entry in data set [9], in [10] and in [11] was “good control” each time.
